Assay [1] concerns HBV. Kind of assay: Inhibition of HBV replication dot-blot assay in HBV-producing hepatoma cell line. It is filed as cell-based. The conditions noted are these: Hepatitis B virus, 144 h; activity in Dot-Blot assay; HepG2-2.2.15 cells; reduction in HBV DNA levels, six days. In short, it runs like this:
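HepG2-2.2.15 confluent monolayers were exposed to a compound dilution series for six days, with medium and compound renewed at day 3. HBV DNA in supernatant/lysate was quantified by dot-blot hybridization, and EC50 was derived from dose-response reduction in HBV DNA.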

Assay [2] has as its system HBV. Kind of assay: HBV replication inhibition assay (encapsidated HBV DNA in supernatant, bDNA QuantiGene). It is filed as cell-based. The conditions noted are these: Hepatitis B virus, 144 h, HepG2.2.15 cells, supernatant at day 6, read-out: Extra HBV DNA.

On to `O=C(Nc1cc(F)c(F)c(F)c1)c1ccc(F)c(SC2CCC(O)CC2)c1` (mixture of isomers) [Compound 10, (cis/trans)-4-Fluoro-3-((4-hydroxycyclohexyl)thio)-N-(3,4,5-trifluorophenyl)benzamide], for which the EC50 is less than 10000 nM in the assay on HBV [1] and 90 nM with HBV [2]. The matching figures for `O=C(Nc1ccc(F)c(Cl)c1)c1ccc(F)c(SC2CCC(O)CC2)c1` (mixture of isomers) [Compound 24, (cis/trans)-N-(3-Chloro-4-fluorophenyl)-4-fluoro-3-((4-hydroxycyclohexyl)thio)benzamide]: less than 10000 nM and 42 nM. The matching figures for `O=C(Nc1cc(F)c(F)c(F)c1)c1ccc(F)c(SC2CCC(C(=O)O)CC2)c1` (mixture of isomers) [Compound 62, (cis/trans)-4-((2-Fluoro-5-((3,4,5-trifluorophenyl)carbamoyl)phenyl)thio)cyclohexanecarboxylic acid]: less than 10000 nM and 710 nM. For the compound `O=C(Nc1ccc(F)c(F)c1)c1ccc(F)c(SC2CCC(C(=O)O)CC2)c1` (mixture of isomers) [Compound 63, (cis/trans)-4-((S-((3,4-Difluorophenyl)carbamoyl)-2-fluorophenyl)thio)cyclohexanecarboxylic acid], the EC50 in the assay on HBV [1] was less than 10000 nM; in the assay on HBV [2] it was 1600 nM. On to `O=C(Nc1cc(F)c(F)c(F)c1)c1ccc(F)c(SC2CC3C(C2)C3C(=O)O)c1` (mixture of isomers) [Compound 98, (cis/trans)-3-((2-fluoro-5-((3,4,5-trifluorophenyl)carbamoyl)phenyl)thio)bicyclo[3.1.0]hexane-6-carboxylic acid], for which the EC50 in the assay on HBV [1] was less than 10000 nM; with HBV [2], 1300 nM. As to `CS(=O)(=O)NC(=O)C1C2CC(Sc3cc(C(=O)Nc4cc(F)c(F)c(F)c4)ccc3F)CC21` (mixture of isomers) [Compound 99, (cis/trans)-3-((2-Fluoro-5-((3,4,5-trifluorophenyl)carbamoyl)phenyl)thio)-N-(methylsulfonyl)bicyclo[3.1.0]hexane-6-carboxamide], the values for the EC50 with HBV [1] and in the assay with HBV [2] were less than 10000 nM and 4000 nM, respectively.

Turning to `CC(O)CCSc1cc(C(=O)Nc2cc(F)c(F)c(F)c2)ccc1F` (racemic) [Compound 18, (±)-4-Fluoro-3-((3-hydroxybutyl)thio)-N-(3,4,5-trifluorophenyl)benzamide], the results for the EC50 with HBV [1] and in the assay on HBV [2] were less than 10000 nM and 570 nM, respectively. Take `O=C1CCCCC(Sc2cccc(C(=O)Nc3ccc(F)c(Cl)c3)c2)C1` (racemic) [Compound 38, (±)-N-(3-Chloro-4-fluorophenyl)-3-((3-oxocycloheptyl)thio)benzamide]: the EC50 in the assay on HBV [2] was 1270 nM. In the case of `O=C(Nc1ccc(F)c(Cl)c1)c1cccc(S[C@H]2CCCC[C@@H](O)C2)c1` (racemic) [Compound 39A, (±)-N-(3-Chloro-4-fluorophenyl)-3-(((1S,3R)-3-hydroxycycloheptyl)thio)benzamide], the EC50 with HBV [2] came out at 1290 nM. On to `O=C(Nc1ccc(F)c(Cl)c1)c1cccc(S[C@@H]2CCCC[C@@H](O)C2)c1` (racemic) [Compound 39B, (±)-N-(3-Chloro-4-fluorophenyl)-3-(((1R,3R)-3-hydroxycycloheptyl)thio)benzamide], for which the EC50 in the assay on HBV [2] worked out at 1290 nM.

Consider `O=C(Nc1ccc(F)c(Cl)c1)c1ccnc(NS(=O)(=O)C2CCC(O)C2)c1` (racemic) [Compound 186, (±)-N-(3-Chloro-4-fluorophenyl)-2-(3-hydroxycyclopentanesulfonamido)isonicotinamide], for which the EC50 is less than 10000 nM in the assay with HBV [1] and 2700 nM in the assay on HBV [2]. The matching figures for `O=C(Nc1cc(F)c(F)c(F)c1)c1ccc(F)c(SC2CCCCC2)c1` [Compound 2, 3-(Cyclohexylthio)-4-fluoro-N-(3,4,5-trifluorophenyl)benzamide]: less than 10000 nM and 138 nM. In the case of `O=C(Nc1cc(F)c(F)c(F)c1)c1ccc(F)c(SC2CCOCC2)c1` [Compound 4, 4-Fluoro-3-((tetrahydro-2H-pyran-4-yl)thio)-N-(3,4,5-trifluorophenyl)benzamide], the EC50 in the assay with HBV [1] was less than 10000 nM; with HBV [2], 220 nM. On to `O=C(Nc1ccc(F)c(Cl)c1)c1ccc(F)c(SCC2(CCO)CC2)c1` [Compound 32, N-(3-Chloro-4-fluorophenyl)-4-fluoro-3-(((1-(2-hydroxyethyl)cyclopropyl)methyl)thio)benzamide], for which the EC50 in the assay with HBV [1] is less than 10000 nM; in the assay on HBV [2] it was 410 nM. The matching figures for `O=C(Nc1cc(F)c(F)c(F)c1)c1ccc(F)c(SCC2(CCO)CC2)c1` [Compound 33, 4-Fluoro-3-(((1-(2-hydroxyethyl)cyclopropyl)methyl)thio)-N-(3,4,5-trifluorophenyl)benzamide]: less than 10000 nM and 620 nM. The matching figures for `O=C(Nc1ccc(F)c(Cl)c1)c1cccc(SC2CCCCC2)c1` [Compound 35, N-(3-Chloro-4-fluorophenyl)-3-(cyclohexylthio)benzamide]: less than 10000 nM and 1210 nM. On to `O=C(Nc1ccc(F)c(Cl)c1)c1cccc(SCCO)c1` [Compound 36, N-(3-Chloro-4-fluorophenyl)-3-((2-hydroxyethyl)thio)benzamide], for which the EC50 in the assay with HBV [1] is less than 10000 nM; in the assay on HBV [2] it was 1340 nM. The matching figures for `O=C(Nc1ccc(F)c(Cl)c1)c1cccc(SC2CCCC2)c1` [Compound 37, N-(3-Chloro-4-fluorophenyl)-3-(cyclopentylthio)benzamide]: less than 10000 nM and 1070 nM. For the compound `O=C(Nc1ccc(F)c(Cl)c1)c1cccc(SCCCO)c1` [Compound 40, N-(3-Chloro-4-fluorophenyl)-3-((3-hydroxypropyl)thio)benzamide], the EC50 in the assay with HBV [2] worked out at 760 nM.

Consider `O=C(Nc1ccc(F)c(Cl)c1)c1cc(NS(=O)(=O)C2CC2)ccn1` [Compound 126, N-(3-Chloro-4-fluorophenyl)-4-(cyclopropanesulfonamido)picolinamide], for which, in the assay on HBV [2], the EC50 was found to be 1000 nM. As to `COCCS(=O)(=O)Nc1cccc(C(=O)Nc2ccc(F)c(Cl)c2)c1` [Compound 198, N-(3-chloro-4-fluorophenyl)-3-(2-methoxyethylsulfonamido)benzamide], in the assay on HBV [1], the EC50 is less than 10000 nM.

In the assay on HBV [1], `O=C(Nc1ccc(F)c(Cl)c1)c1cccc(NS(=O)(=O)c2cccs2)c1` [Compound 199, N-(3-chloro-4-fluorophenyl)-3-(thiophene-2-sulfonamido)benzamide] gave an EC50 of less than 10000 nM. Still for that read-out and setting: next, `O=C(Nc1ccc(F)c(Cl)c1)c1cccc(NS(=O)(=O)c2cn[nH]c2)c1` [Compound 200, N-(3-chloro-4-fluorophenyl)-3-(1H-pyrazole-4-sulfonamido)benzamide]: less than 10000 nM; `Cc1n[nH]c(C)c1S(=O)(=O)Nc1cccc(C(=O)Nc2ccc(F)c(Cl)c2)c1` [Compound 201, N-(3-chloro-4-fluorophenyl)-3-(3,5-dimethyl-1H-pyrazole-4-sulfonamido)benzamide]: less than 10000 nM; `O=C(Nc1ccc(F)c(Cl)c1)c1cccc(NS(=O)(=O)N2CCC(OCc3ccccc3)CC2)c1` [Compound 207, 3-(4-(benzyloxy)piperidine-1-sulfonamido)-N-(3-chloro-4-fluorophenyl)benzamide]: less than 10000 nM.
